Patent US9730906B2, “α-derivatives of cis-monounsaturated fatty acids for use as medicines” (UNIVERSITAT DE LES ILLES BALEARS, priority 2008, dated 2017)
pIC50: −log10 of the molar value.

Legend:
A549 cells = assay: Growth/viability of A549 lung cancer cells in culture (cell count); format: cell-based, human; details: concentration that reduces the number of cells to half
Description: FIG. 3A. Cancer cells (A549) were treated with various concentrations of OHOD and MOD11 to determine whether the effect was dependent on the concentration. […] These cells were treated with different concentrations (0-400 μM) of OHOD and MOD11 and the number of cells was determined by flow cytometry.
FIG. 3B. Cancer cells (A549) were treated with compounds indicated on the horizontal axis for 48 hours at 150 μM. Then, the cells were counted and their number and percent of untreated (control) represented on the vertical axis.
Also, a series of α-derivatives of cis-monounsaturated fatty acids were used to investigate their effectiveness in cancer treatment. Two types of experiment were performed. Firstly, the dependency of the anti-tumour effect on concentration was investigated. To perform these experiments, human lung cancer cells (A549) were cultivated in RPMI medium, supplemented with 10% foetal bovine […], 10 mM Hepes (pH 7.4), 2 mM glutamine, 2 g/l bicarbonate, 1 g/l glucose, 100 units/ml penicillin, 0.1 mg/ml streptomycin, 0.25 μg/ml Amphotericin B, at 37° C. and in the presence of 5% CO2. In a first experimental series, these cells were treated with various concentrations (0-400 μM) of OHOD and MOD11 and the number of cells was determined by flow cytometry (FIG. 3A). […] In a second series, the anti-tumour effectiveness on A549 lung cancer cells was investigated at a single concentration (150 μM) and a time of 48 hours (FIG. 3B). […] Obviously, among the previous molecules, some lacked both modifications on the α-carbon and the double bond in cis configuration (EO, HDO, ODO) and had no therapeutic effect. […]

SF767 human tumour cells = assay: Growth of SF767 tumour cells in culture; format: cell-based; details: concentration that reduces the number of cells to half
Description: In a second experimental series, designed to discover whether these molecules are effective in treatment of different types of tumours, the effect of OHOD at various concentrations on human cells of different types of cancer was studied. These experiments were performed as described before, except that the M220 and HT-29 cell lines were cultured in DMEM medium and the MDA-MB-231 line was incubated in Leibowitz L-15 medium supplemented with 15% foetal bovine […]. […] Where the nature of the tumour process requires, application can be topical (use on the skin of active products for the treatment of melanoma and other cutaneous abnormalities of cancerous nature), which can be considered as cosmetic treatments when attempts are made to correct aesthetic defects.

[1] = Levels of cholesterol, triglycerides and glucose in rats after oral treatment; format: in vivo, rat; details: rats, daily dose of 600 mg/kg oral; untreated controls = 100%
Description: FIG. 13. The four bars, from left to right respectively, show the effect of treatments with vehicle (control, first bar), OHOD at 200 mg/kg (second bar), OHOD at 400 mg/kg (third bar) and OHOD at 600 mg/kg (fourth bar) on the cholesterol levels (group of four bars to the left), triglycerides (group of four bars in the middle) and glucose (group of four bars to the right). The treatments were oral in all cases and were maintained for 30 days. The values indicated are the average obtained in 6 animals per group.
FIG. 14. Effect of treatment with vehicle (control) or with the fatty acids of the invention (600 mg/kg) on the levels of cholesterol, triglycerides and glucose. The values indicated are the average of the values obtained in 6 animals. Each group of three bars represents treatment with a different fatty acid with the left bar corresponding to cholesterol, the middle bar to triglycerides and the right bar to glucose.
Metabolic diseases form a set of pathologies characterised by the accumulation or deficit of certain molecules (cholesterol, triglycerides, glucose, etc.) in the serum or tissues. These changes are the reflection of dysfunctions that are normally associated with errors in the activity of certain enzymes or in the control of these proteins. Among the most important metabolopathies are hypercholesterolemia (elevated levels of cholesterol), hypertriglyceridemia (elevated levels of triglycerides) and diabetes (elevated levels of glucose). These pathologies have high rates of incidence, morbidity and mortality, so that treatment is a first order necessity. […] For these experiments, the dose of fatty acid indicated (0, 200, 400 and 600 mg/kg) was supplied daily via the oral route. At the end of the treatment (30 days), blood was sampled from control and treated animals (n=6) and the levels of cholesterol, triglycerides and glucose were determined using standard colorimetric methods.
(§1) In a further experiment, the effect of various molecules at a single dose (600 mg/kg) was investigated. […] In this sense, modification on the α-carbon and the double bond in cis configuration are crucial elements for producing the therapeutic effect indicated above. […] Finally, the effect of α-derivatives of cis-monounsaturated fatty acids on the prevention of obesity was investigated. For this, a model of rat obesity induced by a cafeteria diet, where the hypercaloric food increases the weight of the animals very markedly, was used. There were various experimental groups (see Table 3), each of which consisted of 6 female Wistar Kyoto rats of 250-300 g in weight. All the animals received a standard diet for 2 weeks. In addition, 2 of the groups received an oral preventative pre-treatment of vehicle and the other groups received 300 mg/kg of the fatty acids indicated below. Afterwards, one of the control groups was maintained on a standard diet (lean control) and the other was fed on a cafeteria diet (obese control). The treated animal groups were fed on the cafeteria diet. Preventative pre-treatment was maintained for all the groups. After two weeks on these diets, the lean control group had increased their body weight by an average of 16±16 g, while the obese control group had increased their body weight by an average of 43±17 g (statistically significance difference, p<0.01).

[2] = Body weight of rats on cafeteria diet, no pre-treatment (Table 5); format: in vivo, rat; details: cafeteria diet for 2 weeks, 300 mg/kg daily oral, no pre-treatment
Text: (§2) The weight of treated animals was statistically less than the weight of obese control rats and statistically indistinguishable from that of lean control rats.

hypertensive rats = assay: Arterial pressure in hypertensive rats after 8-day treatment (Table 5); format: in vivo, rat; details: arterial pressure, hypertensive rats, 8-day treatment, 400 mg/kg oral
[3] = system: SF767 human brain cancer cells; assay: Tumour volume in nude mice infected with SF767 human brain cancer cells; format: in vivo; details: 600 mg/kg daily for 50 days, p<0.001 vs control
Description: FIG. 6A. Effect of different salts of OHOD on human lung cancer in an animal cancer model. The volume of tumours in nude mice infected with SF767 human brain cancer cells (expressed as a percent compared to control) receiving various treatments. The animals received a vehicle (water: Control), 600 mg/kg of OHOD in the form of free fatty acid (OHOD), 600 mg/kg of sodium salt of OHOD (Na-OHOD) or 600 mg/kg of ammonium salt of OHOD (NH3OHOD) daily for 50 days.
FIG. 6B. Effect of different salts of OHOD on human lung cancer in an animal cancer model. The effect of different doses of sodium salt of OHOD (Na-OHOD) are shown on tumour volumes in mice infected with SF767 cells and treated with vehicle (control, 0 mg/kg), 100 mg/kg (100), 200 mg/kg (200), 400 mg/kg (400) and 600 mg/kg (600) for 50 days. * p<0.05; ***p<0.001.
One important characteristic of the molecules covered in the present invention is that they can form various types of salts. FIG. 6A and Table 5 show the therapeutic effects of various α-derivatives of cis-monounsaturated fatty acids and their salts. […] The specificity of this effect is determined by the relation between the dose and the effect these molecules have on the volume of human tumours implanted in animals (FIG. 6B).

[4] = Rat obesity induced by cafeteria diet, preventative pre-treatment (Table 3); format: in vivo, Wistar Kyoto rats; details: 300 mg/kg oral, after two weeks on cafeteria diet; obese control 308 ± 17, lean control 280 ± 16; * lower than obese controls, ‡ indistinguishable
Description: as §1, §2

IL-8 = assay: Proinflammatory cytokines in U937 monocytes stimulated with LPS; format: cell-based, human; details: 250 μM, 72 h; Control 345 ± 7, LPS 967 ± 8
Description: (§3) In an additional study on the release of various proinflammatory cytokines (IL-1b, IL-6, IL-8, IL-10) and TNF-α in U937 monocytes stimulated with bacterial lipopolysaccharide (LPS), a marked reduction in the levels of these molecules was observed after treatments with OHHD at a concentration of 250 μM and 72 h incubation (Table 4). The effect of the α-derivatives of cis-monounsaturated fatty acids (250 μM, 6 h) on the activity and expression of the COX-1 and COX-2 cyclooxygenases was investigated in the same system.

IL-1b = assay: as above; format: cell-based, human; details: 250 μM, 72 h; Control 12 ± 2, LPS 132 ± 2
Description: as §3

IL-10 = assay: as above; format: cell-based, human; details: 250 μM, 72 h; Control 32 ± 1, LPS 315 ± 9
Description: as §3

[5] = system: A549 cells of human lung adenocarcinoma; assay: Prevention of tumour development in nude mice injected with A549 cells; format: in vivo; details: 400 mg/kg per day oral, 2 weeks before and one month after A549 injection, compared with fatty acids not of Formula I, p<0.05
Text: FIG. 2. Preventative effect of various fatty acids against tumour development. […] Animals received treatment before injection of tumour cells and the treatment was subsequently maintained. Animals of the control group were not treated and the volume of their tumours was taken as the reference value (100%).
To determine whether the fatty acids of the invention have applications in the prevention of the development of tumour processes, an animal cancer model was used. This model consisted of immune-deprived animals ([Crl:Nu(Ico)-Fox 1] nude mice in which non-microcytic human lung cancer cells were injected (5×10^6 A549 cells per animal). The control group (infected with cancer cells but untreated) started to develop tumours that were visible after a few days. The sizes of the tumours were measured for the first time at 10 days after implanting the tumour and measurements continued for up to 31 days after the implantation with a digital calliper. The volume of the tumours was calculated with the following equation: v=w^2×l/2 where v is the volume of the tumour, w is its width and l is the length. Preventative treatments against development of the cancer were applied. To carry out these treatments, 400 mg/kg were administered per day for 2 weeks before the injection of tumour cells. This treatment was continued for one month after the implantation of the tumour cells and the volume of the tumours in the animals was measured. Each experimental group was composed of 8 animals. Oral administration of α-derivatives of cis-monounsaturated fatty acids prevented cancer development (A549 cells of human lung adenocarcinoma) (FIG. 2). […] Therefore it was concluded that the introduction of a double bond in the cis configuration in the structure of the fatty acid is a critical factor in the prevention and treatment by fatty acids of cancer development.

TNF-α = assay: Proinflammatory cytokines in U937 monocytes stimulated with LPS; format: cell-based, human; details: 250 μM, 72 h; Control 15 ± 6, LPS 1504 ± 7
Description: (§4) FIG. 18. Levels of interleukin 6 IL-6 (left bar) and […] TNF-α (right bar) in human monocytes in the absence (control) or presence of a pro-inflammatory treatment with bacterial lipopolysaccharide (LPS). Cells treated with LPS were cultured in the absence (Control+LPS) or presence of various fatty acids shown on the horizontal axis.
as §3

IL-6 = assay: as above; format: cell-based, human; details: 250 μM, 72 h; Control 24 ± 3, LPS 1072 ± 4
Description: as §4, §3

[6] = target: T1, cyclooxygenases-1 (COX-1) (Homo sapiens, UniProt P23219); assay: COX-1 activity in U937 differentiated monocytes (Cayman COX-1 inhibitor screening system); format: cell-based; details: 250 μM, 6 hours; compared with fatty acids not of Formula I, p<0.05
T1 construct: endogenous in cells; host or cells: U937 differentiated monocytes
Description: FIG. 19A. Effect of various fatty acids in the inhibition of the activity of cyclooxygenases-1 (COX-1) (Cayman COX-1 inhibitor screening system). […] Cell cultures (U937 differentiated monocytes) were treated with the fatty acids of the invention (250 μM, 6 hours).
as §3

cyclooxygenase-2 (COX-2) = assay: Cellular concentration of COX-2 in U937 differentiated monocytes (immunoblot); format: cell-based, human; details: 250 μM, 6 hours; compared with fatty acids not of Formula I, p<0.05
Description: FIG. 19B. Effect of various fatty acids in the inhibition (concentration of protein) of cyclooxygenase-2 (immunoblot of COX-2). […] Cell cultures (U937 differentiated monocytes) were treated with the fatty acids of the invention (250 μM, 6 hours).
as §3

T1 sequence (P23219 24-599): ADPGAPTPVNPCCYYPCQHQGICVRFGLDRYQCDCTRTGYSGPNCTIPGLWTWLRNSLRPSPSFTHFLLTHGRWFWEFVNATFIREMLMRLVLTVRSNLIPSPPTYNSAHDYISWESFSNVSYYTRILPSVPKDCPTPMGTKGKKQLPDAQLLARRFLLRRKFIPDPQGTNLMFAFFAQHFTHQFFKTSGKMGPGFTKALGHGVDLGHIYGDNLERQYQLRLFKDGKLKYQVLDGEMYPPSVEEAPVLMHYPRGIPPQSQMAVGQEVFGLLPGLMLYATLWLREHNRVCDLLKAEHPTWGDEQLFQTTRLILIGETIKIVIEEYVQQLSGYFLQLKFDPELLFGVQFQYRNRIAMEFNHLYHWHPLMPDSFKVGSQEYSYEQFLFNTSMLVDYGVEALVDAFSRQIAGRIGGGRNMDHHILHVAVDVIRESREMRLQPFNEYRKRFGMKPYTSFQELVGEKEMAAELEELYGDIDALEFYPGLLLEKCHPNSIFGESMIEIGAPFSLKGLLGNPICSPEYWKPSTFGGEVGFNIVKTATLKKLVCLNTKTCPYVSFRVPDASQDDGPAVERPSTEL

CCCCCCCC/C=C\CCCCCCC(O)C(=O)O.N (stereo not shown) [NH3-OHOD]
pIC50 (A549 cells): 4.09
pIC50 (SF767 human tumour cells): 4.07
% control CHO (cholesterol) [1]: 59 % control
% control TG (triglycerides) [1]: 62 % control
Body weight (g) (control = 311 g) [2]: 290 g
PA (control 214 mmHg) (hypertensive rats): 149 mmHg
volume of tumours (percent compared to control) [3]: significant reductions in the size of tumours

CCCCCC/C=C\CCCCCCC(O)C(=O)O (stereo not drawn) [OHHD, α-Hydroxy-cis-Δ9-hexadecenoic]
Final weight [4]: 275 ± 19* g
IL-8, LPS + OHHD (IL-8): 529 ± 7 pg/mL
IL-1b, LPS + OHHD (IL-1b): 41 ± 5 pg/mL
IL-10, LPS + OHHD (IL-10): 53 ± 3 pg/mL
tumour volume (prevention of tumour development) [5]: more significant effect
TNF-α, LPS + OHHD (TNF-α): 65 ± 9 pg/mL
IL-6, LPS + OHHD (IL-6): 68 ± 8 pg/mL
inhibition of COX-1 activity (% of control) [6]: more significant effect
cellular concentration of COX-2 (% of control) (cyclooxygenase-2 (COX-2)): more significant effect
